biological target: T1, panel of 442 kinases (Homo sapiens, UniProt Q6ZN16); assay type: binding; details: Compound Concentration 10 µM
T1 construct: purchased KINOMEscan
T1 sequence (Q6ZN16 1-1313): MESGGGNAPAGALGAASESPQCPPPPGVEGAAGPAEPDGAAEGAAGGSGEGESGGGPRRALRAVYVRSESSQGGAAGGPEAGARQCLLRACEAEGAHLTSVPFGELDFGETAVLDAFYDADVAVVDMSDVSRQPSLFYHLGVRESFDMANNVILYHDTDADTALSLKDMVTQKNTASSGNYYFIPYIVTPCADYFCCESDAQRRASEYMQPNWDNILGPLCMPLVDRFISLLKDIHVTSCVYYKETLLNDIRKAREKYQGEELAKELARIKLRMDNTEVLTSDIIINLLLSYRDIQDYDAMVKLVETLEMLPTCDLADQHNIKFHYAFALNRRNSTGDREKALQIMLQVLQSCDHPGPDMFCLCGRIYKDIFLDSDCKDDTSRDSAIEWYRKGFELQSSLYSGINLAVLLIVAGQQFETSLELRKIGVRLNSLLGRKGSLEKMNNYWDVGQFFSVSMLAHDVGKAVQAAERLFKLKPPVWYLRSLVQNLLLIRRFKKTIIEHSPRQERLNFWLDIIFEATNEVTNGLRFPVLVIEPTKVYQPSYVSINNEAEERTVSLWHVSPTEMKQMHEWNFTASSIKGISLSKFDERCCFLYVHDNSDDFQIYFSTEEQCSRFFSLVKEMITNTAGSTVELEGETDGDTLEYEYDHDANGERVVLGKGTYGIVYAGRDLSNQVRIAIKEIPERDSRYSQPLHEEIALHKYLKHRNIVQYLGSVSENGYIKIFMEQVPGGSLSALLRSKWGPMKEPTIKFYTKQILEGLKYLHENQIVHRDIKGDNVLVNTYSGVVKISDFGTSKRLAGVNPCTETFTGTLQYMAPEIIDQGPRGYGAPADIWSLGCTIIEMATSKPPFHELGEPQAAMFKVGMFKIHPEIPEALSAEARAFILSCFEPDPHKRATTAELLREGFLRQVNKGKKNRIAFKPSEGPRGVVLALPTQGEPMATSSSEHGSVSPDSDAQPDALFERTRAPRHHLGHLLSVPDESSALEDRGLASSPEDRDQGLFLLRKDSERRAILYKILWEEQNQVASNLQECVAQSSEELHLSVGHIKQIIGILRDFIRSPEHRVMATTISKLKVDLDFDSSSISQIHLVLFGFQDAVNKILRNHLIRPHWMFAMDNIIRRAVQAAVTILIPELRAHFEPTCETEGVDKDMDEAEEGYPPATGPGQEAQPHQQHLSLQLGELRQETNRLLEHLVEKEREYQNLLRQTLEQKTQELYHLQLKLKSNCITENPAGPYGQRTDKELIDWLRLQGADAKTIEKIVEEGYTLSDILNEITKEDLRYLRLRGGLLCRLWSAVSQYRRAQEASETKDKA
Text: We assessed the selectivity of members of this scaffold using the KINOMEscan methodology across a near comprehensive panel of 442 kinases [[18,27]].

Compared with `CCOc1cc(C(=O)N2CCC(N3CCN(C)CC3)CC2)ccc1Nc1ncc2c(n1)N(C1CCCC1)c1ccccc1C(=O)N2C` [Compound 26], `COc1cc(C(=O)N2CCC(N3CCN(C)CC3)CC2)ccc1Nc1ncc2c(n1)N(C1CCCC1)c1ccccc1C(=O)N2C` [Compound 25, 11-cyclopentyl-2-((2-methoxy-4-(4-(4-methylpiperazin-1-yl)piperidine-1-carbonyl)phenyl)amino)-5-methyl-5H-benzo[e]pyrimido[5,4-b][1,4]diazepin-6(11H)-one] is lower in “KINOMEscan: MAP3K15” value: 95 for the first, 88 for the second.

First: COc1cc(C(=O)N2CCC(N3CCN(C)CC3)CC2)ccc1Nc1ncc2c(n1)N1CCc3cccc(c31)C(=O)N2C [Compound 24]
Second: COc1cc(C(=O)N2CCC(N3CCN(C)CC3)CC2)ccc1Nc1ncc2c(n1)N(C)c1ccccc1C(=O)N2C [15 (LRRK2-IN-1)]
The “KINOMEscan: MAP3K15” value of the first is higher: 77 for the first, 69 for the second.

Reference: publication PMC3914206
